Measured values published in patent US20200079766A1, “MONOCYCLIC OGA INHIBITOR COMPOUNDS” (Janssen Pharmaceutica NV, priority 2016, published 2020).
Read-outs that look alike come from different tables or passages of the source.

Tests used:
[1] = target: T1, recombinant human Meningioma Expressed Antigen 5 (MGEA5), also referred to as O-GlcNAcase (OGA) (Homo sapiens, UniProt O60502); assay: OGA biochemical assay: inhibition of FM-GlcNAc hydrolysis, fluorescence; protocol A (10 nM OGA, 1 h) or protocol B (2 nM OGA, 6 h); conditions: for IC50: read-out: Enzymatic hOGA, pIC50 (converted)
T1 construct: Full length OGA enzyme was purchased at OriGene (cat # TP322411); purchased OriGene TP322411
T1 sequence (O60502 1-916): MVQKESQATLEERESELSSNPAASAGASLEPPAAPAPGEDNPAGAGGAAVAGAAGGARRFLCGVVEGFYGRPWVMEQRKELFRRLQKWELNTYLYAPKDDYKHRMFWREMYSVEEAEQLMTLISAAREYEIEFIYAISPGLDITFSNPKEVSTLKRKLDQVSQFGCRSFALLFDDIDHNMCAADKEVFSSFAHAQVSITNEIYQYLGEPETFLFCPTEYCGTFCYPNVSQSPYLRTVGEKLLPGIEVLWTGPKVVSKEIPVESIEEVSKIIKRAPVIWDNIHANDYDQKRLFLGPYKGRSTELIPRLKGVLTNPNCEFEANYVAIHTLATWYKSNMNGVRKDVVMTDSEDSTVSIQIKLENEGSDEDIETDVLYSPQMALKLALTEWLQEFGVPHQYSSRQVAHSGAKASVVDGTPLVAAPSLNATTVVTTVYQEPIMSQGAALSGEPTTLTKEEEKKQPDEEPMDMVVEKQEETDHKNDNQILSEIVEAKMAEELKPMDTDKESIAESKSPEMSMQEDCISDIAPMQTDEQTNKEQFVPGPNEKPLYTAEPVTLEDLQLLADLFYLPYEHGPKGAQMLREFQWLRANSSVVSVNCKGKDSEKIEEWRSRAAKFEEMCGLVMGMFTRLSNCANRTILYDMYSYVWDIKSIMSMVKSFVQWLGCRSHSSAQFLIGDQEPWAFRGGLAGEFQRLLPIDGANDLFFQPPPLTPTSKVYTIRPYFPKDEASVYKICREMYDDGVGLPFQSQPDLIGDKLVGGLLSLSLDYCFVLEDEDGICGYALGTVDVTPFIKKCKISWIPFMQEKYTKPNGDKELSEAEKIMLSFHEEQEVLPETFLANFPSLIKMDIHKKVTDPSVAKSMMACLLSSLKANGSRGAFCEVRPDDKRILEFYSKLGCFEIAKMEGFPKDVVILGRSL
From the text: The assay is based on the inhibition of the hydrolysis of fluorescein mono-3-D-N-Acetyl-Glucosamine (FM-GlcNAc) (Mariappa et al. 2015, Biochem J 470:255) by the recombinant human Meningioma Expressed Antigen 5 (MGEA5), also referred to as O-GlcNAcase (OGA). The hydrolysis FM-GlcNAc (Marker Gene technologies, cat # M1485) results in the formation of ß-D-N-glucosamineacetate and fluorescein. The fluorescence of the latter can be measured at excitation wavelength 485 nm and emission wavelength 538 nm. An increase in enzyme activity results in an increase in fluorescence signal. Full length OGA enzyme was purchased at OriGene (cat # TP322411). The enzyme was stored in 25 mM Tris.HCl, pH 7.3, 100 mM glycine, 10% glycerol at −20° C. Thiamet G and GlcNAcStatin were tested as reference compounds (Yuzwa et al. 2008 Nature Chemical Biology 4:483; Yuzwa et al. 2012 Nature Chemical Biology 8:393). The assay was performed in 200 mM Citrate/phosphate buffer supplemented with 0.005% Tween-20. 35.6 g Na2HPO42H2O (Sigma, # C0759) were dissolved in 1 L water to obtain a 200 mM solution. 19.2 g citric acid (Merck, #1.06580) was dissolved in 1 L water to obtain a 100 mM solution. pH of the sodiumphosphate solution was adjusted with the citric acid solution to 7.2. The buffer to stop the reaction consists of a 500 mM Carbonate buffer, pH 11.0. 734 mg
FM-GlcNAc were dissolved in 5.48 mL DMSO to obtain a 250 mM solution and was stored at −20° C. OGA was used at a 10 nM (protocol A) or 2 nM (protocol B) concentration and FM-GlcNAc at a 100 uM final concentration. Dilutions were prepared in assay buffer.
50 nl of a compound dissolved in DMSO was dispensed on Black Proxiplate™ 384 Plus Assay plates (Perkin Elmer, #6008269) and 3 μl fl-OGA enzyme mix added subsequently. Plates were pre-incubated for 60 min at room temperature and then 2 μl FM-GlcNAc substrate mix added. […] Plates were briefly centrifuged for 1 min at 1000 rpm and incubate at room temperature for 1 h (10 nM OGA, protocol A) or 6 h (2 nM OGA, protocol B). To stop the reaction 5 μl STOP buffer were added and plates centrifuge again 1 min at 1000 rpm. Fluorescence was quantified in the Thermo Scientific Fluoroskan Ascent or the PerkinElmer EnVision with excitation wavelength 485 nm and emission wavelength 538 nm.
For analysis a best-fit curve is fitted by a minimum sum of squares method. From this an IC50 value and Hill coefficient was obtained. High control (no inhibitor) and low control (saturating concentrations of standard inhibitor) were used to define the minimum and maximum values.

[2] = test system: OGA in HEK293 cells inducible for P301L mutant human Tau (isoform 2N4R); assay: OGA cellular assay: immunocytochemical detection of O-GlcNAcylated proteins (CTD110.6 antibody) after 6 h incubation; format: cell-based; conditions: for Emax / EC50: Homo sapiens, HEK293, 6 h; for Emax / Cellular Emax (%): maximum = Thiamet G 200 uM; for EC50: read-out: Cellular hOGA, pEC50 (converted)
Description: HEK293 cells inducible for P301L mutant human Tau (isoform 2N4R) were established at Janssen. Thiamet-G was used for both plate validation (high control) and as reference compound (reference EC50 assay validation). OGA inhibition is evaluated through the immunocytochemical (ICC) detection of O-GlcNAcylated proteins by the use of a monoclonal antibody (CTD110.6; Cell Signaling, #9875) detecting O-GlcNAcylated residues as previoulsy described (Dorfmueller et al. 2010 Chemistry & biology, 17:1250). Inhibition of OGA will result in an increase of O-GlcNAcylated protein levels resulting in an increased signal in the experiment. Cell nuclei are stained with Hoechst to give a cell culture quality control and a rough estimate of immediate compounds toxicity, if any. ICC pictures are imaged with a Perkin Elmer Opera Phenix plate microscope and quantified with the provided software Perkin Elmer Harmony 4.1.
Cells were propagated in DMEM high Glucose (Sigma, # D5796) following standard procedures. 2 days before the cell assay cells are split, counted and seeded in Poly-D-Lysine (PDL) coated 96-wells (Greiner, #655946) plate at a cell density of 12,000 cells per cm^2 (4,000 cells per well) in 100 μl of Assay Medium (Low Glucose medium is used to reduce basal levels of GlcNAcylation) (Park et al. 2014 The Journal of biological chemistry 289:13519). At the day of compound test medium from assay plates was removed and replenished with 90 μl of fresh Assay Medium. 10 μl of compounds at a 10 fold final concentration were added to the wells. Plates were centrifuged shortly before incubation in the cell incubator for 6 hours. DMSO concentration was set to 0.2%. Medium is discarded by applying vacuum. For staining of cells medium was removed and cells washed once with 100 μl D-PBS (Sigma, # D8537). From next step onwards unless other stated assay volume was always 50 μl and incubation was performed without agitation and at room temperature. Cells were fixed in 50 μl of a 4% paraformaldehyde (PFA, Alpha aesar, #043368) PBS solution for 15 minutes at room temperature. […] Before analysis samples were washed 2 times manually for 5 minutes in ICC base buffer.
Imaging is performed using Perkin Elmer Phenix Opera using a water 20× objective and recording 9 fields per well. Intensity readout at 488 nm is used as a measure of O-GlcNAcylation level of total proteins in wells. To assess potential toxicity of compounds nuclei were counted using the Hoechst staining. IC50-values are calculated using parametric non-linear regression model fitting. As a maximum inhibition Thiamet G at a 200 uM concentration is present on each plate. In addition, a concentration response of Thiamet G is calculated on each plate.

[3] = Enzymatic protocol B (2 nM OGA, 6 h)
[4] = Enzymatic protocol A (10 nM OGA, 1 h)

SMILES | Emax [1, 3] [%] | IC50 [1, 3] [nM] | Emax [2] [%] | EC50 [2] [nM] | Cellular hOGA; pEC50 [2] | Cellular Emax (%) [2] [%] | Enzymatic Emax (%) [1, 3] [%] | Emax [1, 4] [%] | IC50 [1, 4] [nM]
CC(=O)Nc1ncc(C(C)N2CCCC(COc3cc(C)nc(C)c3)C2)s1 (single isomer, unassigned) [compound 134] | 100 | 28.2 | 79.5 | 52.5 | – | – | – | – | –
CC(=O)Nc1ncc([C@@H](C)N2CCC[C@@H](COc3cc(C)nc(C)c3)C2)s1 (single isomer, unassigned) [compound 135] | 104 | 178 | – | – | 6.3 | 67.9 | – | – | –
CC(=O)Nc1ncc([C@@H](C)N2CCC[C@H](COc3cc(C)nc(C)c3)C2)s1 (single isomer, unassigned) [compound 136] | 100 | 95.5 | 70.6 | 479 | – | – | – | – | –
CC(=O)Nc1ncc([C@@H](C)N2CCC[C@@H](COc3cc(C)nc(C)c3)C2)s1 (single isomer, unassigned) [compound 137] | – | 0.955 | – | – | 8.83 | 94.7 | 102.2 | – | –
CC(=O)Nc1ncc(CN2CCCC(c3ccnc(C)c3)C2)s1 (stereo not shown) [compound 6] | 101 | 27.5 | 98.7 | 27.5 | – | – | – | – | –
CC(=O)Nc1ncc(CN2CCCC(c3cc(C)nc(C)c3)C2)s1 (stereo not shown) [compound 7] | 99.3 | 17.8 | 98.9 | 8.91 | – | – | – | – | –
CC(=O)Nc1ncc(CN2CCC[C@H](Nc3cc(C)nc(C)c3)C2)s1 [compound 9] | 103 | 3.72 | 102 | 47.9 | – | – | – | – | –
Cc1cc(N[C@@H]2CCCN(C(C)c3ccc4nccnc4c3)C2)cc(C)n1 (stereo partly shown) [compound 11] | 101 | 25.7 | 65.2 | 4270 | – | – | – | – | –
CC(=O)Nc1ncc(CN2CCCC(Oc3cc(C)cc(C)c3)C2)s1 (stereo not shown) [compound 13, reference compound] | 98.7 | 93.3 | 92.1 | 316 | – | – | – | – | –
CC(=O)Nc1ncc(CN2CCCC(Oc3cc(C)nc(C)c3)C2)s1 (stereo not shown) [compound 14] | 101 | 9.12 | 118 | 112 | – | – | – | 100 | 8.13
CC(=O)Nc1ncc(CN2CCC[C@@H](Oc3cc(C)nc(C)c3)C2)s1 [compound 15] | 102 | 8.51 | 98.4 | 1230 | – | – | – | – | –
CC(=O)Nc1ncc(CN2CCC[C@H](Oc3cc(C)nc(C)c3)C2)s1 [compound 16] | 101 | 70.8 | 115 | 63.1 | – | – | – | – | –
Cc1cc(O[C@@H]2CCCN(Cc3ccc4nccnc4c3)C2)cc(C)n1 [compound 18] | 97.9 | 417 | 12.4 | > 10000 | – | – | – | – | –
CC(=O)Nc1ncc(CN2CCCC(COc3cc(C)nc(C)c3)C2)s1 (stereo not shown) [compound 20] | 101 | 6.76 | 111 | 6.31 | – | – | – | – | –
CC(=O)Nc1ncc(CN2CCCC(Cc3cc(C)nc(C)n3)C2)s1 (stereo not shown) [compound 24] | 101 | 5.5 | 111 | 32.4 | – | – | – | – | –
CC(=O)Nc1ncc(CN2CCCC(Cc3cc(C)nc(C)c3)C2)s1 (stereo not shown) [compound 27] | 99.6 | 2.45 | 118 | 5.25 | – | – | – | – | –
CC(=O)Nc1ncc(CN2CCC[C@H](Cc3cc(C)nc(C)c3)C2)s1 [compound 28] | 102 | 1.05 | 106 | 4.47 | – | – | – | – | –
CC(=O)Nc1ncc(CN2CCC[C@@H](Cc3cc(C)nc(C)c3)C2)s1 [compound 29] | 102 | 8.71 | 108 | 56.2 | – | – | – | – | –
CC(=O)Nc1ncc(CN2CCC(Cc3cc(C)nc(C)c3)C2)s1 (stereo not shown) [compound 30] | 124 | 4.68 | 99.2 | 13.2 | – | – | – | – | –
CC(=O)Nc1ncc(CN2CCCC(Nc3cc(C)nc(C)c3)C2)s1 (stereo not shown) [compound 31] | 102 | 3.24 | 90.2 | 20 | – | – | – | – | –
CC(=O)Nc1ncc(S(=O)(=O)N2CCC[C@H](Cc3cc(C)nc(C)c3)C2)s1 [compound 33] | 99.9 | 72.4 | 33.8 | > 1000 | – | – | – | – | –
CC(=O)Nc1ncc(CN2CC[C@@H](Cc3ncc(C)cc3C(F)(F)F)C2)s1 [compound 35] | 101 | 12.6 | 91.9 | 77.6 | – | – | – | – | –
CC(=O)Nc1ncc(CN2CC[C@H](Cc3cnc(C)c(C)c3)C2)s1 [compound 37] | 99.1 | 3.09 | 87.8 | 18.2 | – | – | – | – | –
